Laboratory results taken from US8975259B2, “Compositions and methods for inhibiting G protein signaling” (University of Rochester, priority 2007, dated 2015).
Where two headings read alike, the source gives them in different places.

Target: Gβ1γ2 (UniProt P54311+P63212)
Experiment: Competition phage ELISA: inhibition of SIGK-phage binding to immobilized biotinylated Gβ1γ2
Design: made in house; host or cells: Sf9 insect cells (baculovirus; co-expressed with BirA and (His)6-Gαi1, from which βγ was eluted); species or system rat
Details: for binding to the G protein β subunit: result in words
Protocol: Phage ELISA assays used to assess peptide binding to wild-type and mutant b-βγ were performed according to standard methods (Smrcka and Scott (2002) Methods Enzymol. 344:557-76). Briefly, 1 μg streptavidin was immobilized in the well of a […] overnight at 4° C. The wells were blocked with 100 μL of 2% bovine serum albumin (BSA) in Tris-buffered saline (TBS) for 1 hour at 4° C. followed by three washes of IX TBS/0.5% TWEEN®. […] The wells were washed, followed by the addition of IxIO^6 to IxIO^10 phage particles and incubated at 4° C. for 3 hours. The wells were then washed six times with TBS/0.5% TWEEN® followed by addition of 40 μL of 1:5000 dilution of anti-M13 antibody (Pharmacia, Uppsala, Sweden) and incubated at room temperature for 1 hour. The wells were washed, followed by the addition of 40 μL of (2,2′-Azino-bis (3-ethylbenzthiazoline)-6-sulfonic acid (ABTS) and the colorimetric reaction was monitored at 405 nm. Nonspecific binding was subtracted for each reading.
A phage ELISA assay was used to determine whether small molecules identified in the computational screen could interact with the Gβy protein interaction surface. […] The screen was based on a reduction in the optical density (OD) of wells containing Gβγ subunits and phage. […] Three background wells contained no βy subunits.
As disclosed herein, biotinylated Gβy subunits were immobilized on the surface of a 96-well plate coated with streptavidin, phage displaying Gβγ-binding peptides were subsequently added and binding in the presence and absence of test compounds detected with an anti-phage antibody.
The phage ELISA assay was used to rapidly screen the ability of compounds to bind to the protein interaction “hot spot” based on the method of Scott et. al (Scott et al., 2001). This assay is performed in the presence of detergent (0.5% Tween) to eliminate non-specific compound aggregation artifacts.
Compounds/DMSO and 0.1×10^10 phage were added simultaneously and subsequently incubated for 1 h at room temperature. Plates were then washed with 1× Tris-buffered saline/0.5% Tween 20 and incubated with anti-M13, HRP-conjugated antibody (Amersham, Chalfont St. Giles, Buckinghamshire, UK). Phage binding was determined by monitoring A405 upon addition of 2,2′-azino-bis(3-ethylbenzothiazoline-6-sulfonic acid) (Sigma Aldrich).

[1] = kind of constant not stated, read-out: binding to the G protein β subunit

## O=C(O)c1cccc2cccc(-c3c4ccc(=O)c(O)c-4oc4c(O)c(O)ccc34)c12 [drawing 108]
Table 6
  IC50: 0.15 µM

## Cc1c2ccc(=O)cc-2oc2cc(O)ccc12 [6-hydroxy-9-methyl-3H-xanthen-3-one]
  binding to the G protein β subunit: not to bind

## Nc1c(S(=O)(=O)O)cc(Nc2cccc(S(N)(=O)=O)c2)c2c1C(=O)c1ccccc1C2=O [Compound M117]
Table 8, read-out: IC50
  IC50: 43 µM
Table 18, compounds identified in Elisa screen, read-out: IC50
  IC50: 56 µM

## O=C(O)CCc1c2ccc(=O)cc-2oc2cc(O)ccc12 [3-(6-hydroxy-3-oxo-3H-xanthen-9-yl)propionic acid]
  binding to the G protein β subunit: Neither of these compounds showed any binding

## Nc1ccc(Nc2cc(S(=O)(=O)O)c(N)c3c2C(=O)c2ccccc2C3=O)cc1 [drawing 51]
Table 2, read-out: Elisa IC50
  IC50: 12 µM

## O=C1C=CC2C(=C1O)Oc1c(ccc(O)c1O)/C2=C\C=C(O)O (centres unmarked)
Table 6
  IC50: 0.2 µM

## O=C(O)CCc1c2ccc(=O)c(O)c-2oc2c(O)c(O)ccc12 [3-(4,5,6-trihydroxy-3-oxo-3H-xanthen-9-ylpropanoic acid]
[1]
  IC50: 2.5 µM

## Nc1c(S(=O)(=O)O)cc(Nc2cccc(S(N)(=O)=O)c2)c2c1C(=O)c1ccccc1C2=O [drawing 50]
Table 2, read-out: Elisa IC50
  IC50: 56 µM

## O=C(O)/C=C/c1c2ccc(=O)c(O)c-2oc2c(O)c(O)ccc12 [(E)-3-(4,5,6-trihydroxy-3-oxo-3H-xanthen-9-yl)acrylic acid]
[1]
  IC50: 0.2 µM

## 7-methyl-3-(4,5,6-trihydroxy-3-oxo-3H-xanthen-9-yl)bicyclo[2.2.1]hept-5-ene-2-carboxylic acid
Kind of constant not stated, read-out: binding to the protein interaction site of the β subunit of a G protein
  IC50: 0.7 µM

## O=C(O)C1C2C=CC(C2)C1c1c2ccc(=O)cc-2oc2cc(O)ccc12 (centres unmarked) [3-(6-hydroxy-3-oxo-3H-xanthen-9yl)bicyclo[2.2.1]hept-5-ene-2-carboxylic acid]
[1]
  IC50: 14 µM

## Nc1cccc(Nc2cc(S(=O)(=O)O)c(N)c3c2C(=O)c2ccccc2C3=O)c1 [drawing 52]
Table 2, read-out: Elisa IC50
  IC50: 19 µM

## O=C(O)C1CC23C(Cl)C(Cl)C(Cl)C(Cl)C2(CC1c1c2ccc(=O)c(O)c-2oc2c(O)c(O)ccc12)C3(Cl)Cl (centres unmarked)
Table 6
  IC50: 0.2 µM
